Measurements published in patent publication US20110117209A1 (priority 2008, published 2011).
Values joined by “and” are separate entries in the source; they are usually repeats but may differ in a detail not shown here. Equal entries are not always repeated. Where two headings read alike, the source gives them in different places.

How the values were obtained:
[1] = tested on: Staphylococcus aureus; assay type: cell-based
[2] = assay type: physicochemical

| Compound | activity along EN 13727 (Active/Inefficient) [1] | activity along EN 13727, log reduction [1] [log] | hydrogen peroxide concentration ([2]; T0) [%] | hydrogen peroxide concentration ([2]; T = 15 min) [%] | hydrogen peroxide concentration ([2]; T = 24 h) | hydrogen peroxide concentration ([2]; T = 72 h) |
| --- | --- | --- | --- | --- | --- | --- |
| OO [H2O2, hydrogen peroxide] | Active | >5 |  |  |  |  |
| sodium alkylsulfate [Sodium alkyl (dodecyl) sulfate] |  |  | 7.6 | 7.6 | 7.6% | 7.4% and 7.6% |
| O=S(=O)([O-])[O-].[Cu+2] [CuSO4, copper sulfate] | Inefficient |  |  |  |  |  |
| sodium alkylethersulfate |  |  | 7.6 | 7.6 | 7.3% and 7.6% | 6.9% and 7.6% |
